# Tests used:
# [1] = test system: human α-synuclein; assay: Human α-synuclein clearance in A53T transgenic mice; format: in vivo, mouse; settings: i.p., 18 mg/kg/day, p=0.01 vs vehicle-treated A53T mice
# Experimental: (§1) FIG. 4. Enhancing lysosome efficiency with the cathepsin B modulator PADK leads to reductions of multiple types of proteinopathy-related accumulation events. […] Age-matched wild-type mice (wt) and 9-10-month mutant human APP mice, a model of early dementia, treated with or without PADK were assessed for the 4-kDa Δβ peptide, the active form of cathepsin B (act CB), and other proteins in hippocampal samples (C). Similar treatment groups used another APP mouse model at 20-22 months of age to measure clearance of APP carboxyterminal fragments APP-αCTF and APP-βCTF (D). Rat hippocampal slice cultures from the untreated control group (con) and slices treated with submicromolar Δβ42 (early tauopathy model) in the absence or presence of PADK (5 μM for 4 days) were assessed for phosphorylated tau (pTau) and other proteins (E). For a model of early α-synucleinopathy, human A53T α-synuclein transgenic mice, at 7 months old, were studied with or without PADK treatment and assessed for human α-synuclein (α-syn) in TX-100 extracts of hippocampus and for other proteins in hippocampal homogenates (F). Plotted data (±SEM) were compared to neighboring vehicle groups by unpaired t-tests: *p=0.02, **p<0.01, ***p<0.001. APPswind and APP-PS1 mice are described in Butler et al., (2011), the entire content of which is hereby incorporated herein by reference.
# FIG. 6. […]
# [2] = test system: APP-αCTF and APP-βCTF; assay: Clearance of APP carboxyterminal fragments in APP mouse model; format: in vivo; settings: PADK-treated transgenic mice, 20-22 months; correlated with augmented active CatB
# Experimental: as §1, with “reference. […]” for “reference.”
# [3] = test system: mutant colonies; assay: Ames test of genetic toxicity; format: cell-based; settings: in contrast to a mutagen tested in parallel
# [4] = test system: intracellular Aβ1-42; assay: Intracellular Aβ1-42 in pyramidal neurons of APPswe/PS1ΔE9 transgenic mice; format: in vivo, mouse; settings: PADK-treated APPswe/PS1ΔE9 transgenic mice; CA1
# Description: FIG. 1. Lysosomal modulation increases the cathepsin B content of lysosomes and reduces intracellular Δβ1-42 in the APPswe/PS1ΔE9 transgenic mouse model of Alzheimer's disease. […] Without wishing to be bound by any scientific theory, the latter steps may involve processing/trafficking of active intermediate (intCB) and mature forms (matCB) from early/late endosomes to lysosomes in order to promote protein degradation (A). […] The increase in organellar cathepsin B enzyme (red) in PADK-treated APPswe/PS1ΔE9 transgenic mice (tg) was associated with a decrease in intracellular Δβ1-42 in the CA1 pyramidal neurons (C). Arrows denote co-localization in lysosomes, capturing intact Δβ1-42 before being degraded by cathepsin B. View-field widths: 12 μm. wt, vehicle-treated wild-type mice.
# The lysosomal modulator Z-Phe-Ala-diazomethylketone (PADK) is administered to APPswe/PS1ΔE9 transgenic mice. Low-level PADK enhances cathepsin trafficking and maturation, thereby improving the clearance capacity of lysosomes (FIG. 1). It attenuates both PHF-tau and synaptic decline in the hippocampal slice model of protein accumulation (Bendiske and Bahr, 2003; Butler et al., 2005; Bahr, 2009). […] In PADK-treated transgenic mice, the increase in organellar cathepsin B was associated with a decrease in intracellular Aβ1-42 in pyramidal neurons (FIG. 1C).
# [5] = test system: PHF-tau; settings: cited from earlier work
# [6] = test system: Aβ peptide; assay: Aβ peptide in hippocampal samples of mutant human APP mice; format: in vivo, mouse; settings: PADK-treated transgenic mice; correlated with augmented active CatB in brain
# Experimental: as §1, with “reference. […]” for “reference.”
# [7] = low-level PADK, hippocampal slice model of protein accumulation
structure (smiles),measurement,setting,value
"C[C@H](NC(=O)[C@H](Cc1ccccc1)NC(=O)OCc1ccccc1)C(=O)C=[N+]=[N-] [PADK, N-carbobenzyloxy-L-phenylalanyl-L-alanyl-diazomethylketone]",human α-synuclein levels,[1],decrease
same,APP carboxy-terminal fragments (αCTF and βCTF),[2],reductions
same,mutant colonies in the Ames test,[3],did not produce mutant colonies
same,intracellular Aβ1-42 in pyramidal neurons,[4],decrease
same,"microtubule stability markers, transport function, and synaptic proteins",[5]; following PADK-mediated tau clearance,recovery
same,PHF-tau,[5]; [7],attenuates
same,synaptic decline,[5]; [7],attenuates
same,tau aggregates and tau-related pathology,[5]; when CatB activity was increased with PADK,Reduction
same,Aβ peptide level,[6],reductions
